Key:
MurC = MurC (Escherichia coli, UniProt P17952); experiment: Inhibition of MurC, colorimetric malachite green method; format: biochemical, bacterial; conditions: for remaining activity at 100 µM: 0.25 h, residual activity at 100 µM, read-out: MurC RA (%); for remaining activity at 100 µM / IC50: Table 2; for IC50: IC50 ± SEM, read-out: MurC IC50; for MurC inhibition (in words): assayed at 100 µM
Protocol: Inhibition of Mur enzymes was monitored with the colorimetric malachite green method, which measured orthophosphate formed during reaction. The mixtures with a final volume of 50 µL contained:
MurC: 50 mM HEPES-NaOH, pH 8.0, 5 mM MgCl2, 0.005% Triton X-114, 120 µM L-Ala, 120 µM UDP-N-acetyl-muramic acid, 450 µM ATP, purified MurC, and 50 or 100 µM of each compound tested.
All compounds were soluble in the assay mixtures containing 5% DMSO (v/v). After incubation for 15 min (20 min for DdlB) at 37 °C, the enzyme reaction was terminated by addition of Biomol® reagent (100 µL) and absorbance was measured after 5 min at 650 nm (Synergy™ H4 microplate reader; BioTek Instruments, Inc., BioTek Gen5 Data Analysis Software, version 2.9, Santa Clara, CA, USA). All experiments were performed in duplicate.

hMAO-B = biological target: T1, hMAO-B (Homo sapiens, UniProt P27338); experiment: biochemical; conditions: for remaining activity at 10 µM / hMAO-B RA [%]: residual activity at 10 µM; for remaining activity at 10 µM: read-out: hMAO-B RA (%); for IC50: IC50 ± SEM
T1 construct: purchased Sigma Aldrich; host or cells: BTI-TN-5B1-4 baculovirus-infected insect cells
T1 sequence (P27338 1-520): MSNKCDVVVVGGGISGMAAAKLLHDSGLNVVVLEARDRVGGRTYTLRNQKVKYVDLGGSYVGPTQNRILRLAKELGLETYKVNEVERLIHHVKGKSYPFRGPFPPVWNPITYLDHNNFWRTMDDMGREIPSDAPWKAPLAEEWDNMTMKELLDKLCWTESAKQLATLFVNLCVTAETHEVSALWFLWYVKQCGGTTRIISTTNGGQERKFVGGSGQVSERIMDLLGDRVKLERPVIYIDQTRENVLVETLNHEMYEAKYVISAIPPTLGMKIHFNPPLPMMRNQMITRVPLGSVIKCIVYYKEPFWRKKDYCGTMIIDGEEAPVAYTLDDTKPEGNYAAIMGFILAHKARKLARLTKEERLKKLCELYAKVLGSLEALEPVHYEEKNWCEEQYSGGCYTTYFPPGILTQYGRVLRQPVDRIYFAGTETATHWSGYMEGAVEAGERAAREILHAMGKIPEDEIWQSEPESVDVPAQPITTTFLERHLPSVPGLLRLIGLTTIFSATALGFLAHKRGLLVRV
Description: (§1) The effects of the compounds on hMAO-A and hMAO-B were investigated using a fluorimetric assay, following a method previously described in the literature. Recombinant human microsomal hMAO enzymes expressed in BTI-TN-5B1-4 baculovirus-infected insect cells, horseradish peroxidase (HRP, type II, lyophilized powder), and p-tyramine hydrochloride were purchased from Sigma Aldrich. 10-Acetyl-3,7-dihydroxyphenoxazine (Amplex Red reagent) was synthesized as described in the literature.
After preincubation, the reaction was started by adding final concentrations of 200 µM Amplex Red reagent, 2 U/mL HRP, and 1 mM p-tyramine hydrochloride. Resorufin production was quantified based on the fluorescence produced (λex = 530 nm; λem = 590 nm) at 37 °C over a 20 min period. For the control experiments, DMSO was used instead of appropriate dilutions of the compounds in DMSO. For the determination of blank (b), the enzyme solution was replaced by a phosphate-buffered solution. Initial velocities were calculated from the obtained trend, with each measurement performed in duplicate. Specific fluorescence emission to determine the final results was calculated after subtracting the blank activity (b). Inhibitory potencies were expressed as RAs, and IC50 values were calculated as described in the section “Inhibition of hBChE and mAChE” above.

hMAO-A = biological target: T2, hMAO-A (Homo sapiens, UniProt P21397); experiment: Inhibition of hMAO-A, fluorimetric Amplex Red assay; format: biochemical; conditions: residual activity at 10 µM; for remaining activity at 10 µM: read-out: hMAO-A RA (%)
T2 construct: purchased Sigma Aldrich; host or cells: BTI-TN-5B1-4 baculovirus-infected insect cells
T2 sequence (P21397 1-527): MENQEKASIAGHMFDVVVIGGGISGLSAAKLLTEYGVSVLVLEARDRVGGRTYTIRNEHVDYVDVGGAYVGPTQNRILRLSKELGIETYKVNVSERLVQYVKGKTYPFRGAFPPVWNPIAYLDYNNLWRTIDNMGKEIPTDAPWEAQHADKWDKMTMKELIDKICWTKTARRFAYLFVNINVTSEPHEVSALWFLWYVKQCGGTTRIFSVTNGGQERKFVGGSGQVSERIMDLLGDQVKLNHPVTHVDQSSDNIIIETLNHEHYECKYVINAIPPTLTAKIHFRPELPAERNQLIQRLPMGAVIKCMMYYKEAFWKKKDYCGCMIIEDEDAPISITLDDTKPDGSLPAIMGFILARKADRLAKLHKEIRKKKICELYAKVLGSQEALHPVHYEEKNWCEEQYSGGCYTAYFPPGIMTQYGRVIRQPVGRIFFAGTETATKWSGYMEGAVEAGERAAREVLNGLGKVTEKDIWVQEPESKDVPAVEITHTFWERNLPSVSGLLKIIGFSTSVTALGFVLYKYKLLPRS
Protocol: as §1
Briefly, 100 µL of 50 mM sodium phosphate buffer (pH 7.4, 0.05% (v/v) Triton X-114), containing the compounds and hMAO-A or hMAO-B, was incubated for 15 min at 37 °C in a flat-bottomed black 96-well microplate protected from ambient light. After preincubation, the reaction was started by adding final concentrations of 200 µM Amplex Red reagent, 2 U/mL HRP, and 1 mM p-tyramine hydrochloride. Resorufin production was quantified based on the fluorescence produced (λex = 530 nm; λem = 590 nm) at 37 °C over a 20 min period. For the control experiments, DMSO was used instead of appropriate dilutions of the compounds in DMSO. For the determination of blank (b), the enzyme solution was replaced by a phosphate-buffered solution. Initial velocities were calculated from the obtained trend, with each measurement performed in duplicate. Specific fluorescence emission to determine the final results was calculated after subtracting the blank activity (b). Inhibitory potencies were expressed as RAs, and IC50 values were calculated as described in the section “Inhibition of hBChE and mAChE” above.

Sequence of MurC (P17952 whole entry): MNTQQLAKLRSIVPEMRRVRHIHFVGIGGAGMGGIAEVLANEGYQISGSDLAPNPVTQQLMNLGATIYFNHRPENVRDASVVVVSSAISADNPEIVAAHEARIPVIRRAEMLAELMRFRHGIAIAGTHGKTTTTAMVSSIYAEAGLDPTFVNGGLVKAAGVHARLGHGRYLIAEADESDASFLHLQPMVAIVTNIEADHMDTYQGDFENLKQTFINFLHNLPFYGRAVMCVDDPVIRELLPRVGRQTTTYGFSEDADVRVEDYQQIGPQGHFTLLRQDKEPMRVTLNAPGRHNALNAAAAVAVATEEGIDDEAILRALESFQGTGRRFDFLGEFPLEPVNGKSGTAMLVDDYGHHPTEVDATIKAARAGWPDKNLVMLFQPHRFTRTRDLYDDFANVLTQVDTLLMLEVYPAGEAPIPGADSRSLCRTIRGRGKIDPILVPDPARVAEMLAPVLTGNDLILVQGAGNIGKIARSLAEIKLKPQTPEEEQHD

Compound CCCCc1nc2ccn(Cc3ccccc3F)c(=O)c2n1Cc1ccc(-c2ccccc2-c2nnn[nH]2)cc1 [Compound 10] has a remaining activity at 100 µM (MurC) of 30% and an IC50 (MurC) of 92 ± 11 µM.
For CCCCc1nc2ccn(Cc3ccccc3Cl)c(=O)c2n1Cc1ccc(-c2ccccc2-c2nnn[nH]2)cc1 [Compound 11], the remaining activity at 100 µM (MurC) was 20% and the IC50 (MurC) was 77 ± 12 µM.
With CCCCc1nc2ccn(Cc3ccccc3C(=O)OC)c(=O)c2n1Cc1ccc(-c2ccccc2-c2nnn[nH]2)cc1 [Compound 12] the remaining activity at 100 µM (MurC) was 27% and the IC50 (MurC) was 84 ± 15 µM.
Compound CCCCc1nc2ccn(Cc3ccccc3C(=O)O)c(=O)c2n1Cc1ccc(-c2ccccc2-c2nnn[nH]2)cc1 [Compound 13] has a remaining activity at 100 µM (MurC) of 34% and an IC50 (MurC) of 109 ± 26 µM.
CCCCc1nc2ccn(Cc3ccsc3)c(=O)c2n1Cc1ccc(-c2ccccc2-c2nnn[nH]2)cc1 [Compound 14] gave a remaining activity at 100 µM (MurC) of 26% and an IC50 (MurC) of 90 ± 13 µM.
CCCCc1nc2ccn(CC(=O)NC(C)(C)C)c(=O)c2n1Cc1ccc(-c2ccccc2S(=O)(=O)NC(=O)CCc2ccccc2)cc1F [Compound 15] was tested, and the remaining activity at 100 µM (MurC) was 59% and the “MurC inhibition (in words)” value (MurC) was “loss of MurC inhibition”.
With CCCCc1nc2ccn(CC(=O)N3CCCCC3)c(=O)c2n1Cc1ccc(-c2ccccc2S(=O)(=O)NC(=O)CCc2ccccc2)cc1F [Compound 16] the remaining activity at 100 µM (MurC) was 53%.
CCCCc1nc2ccn(CC(=O)C(C)(C)C)c(=O)c2n1Cc1ccc(-c2ccccc2-c2nnn[nH]2)cc1 [Compound 17] was tested, and the remaining activity at 100 µM (MurC) was 75% and the “MurC inhibition (in words)” value (MurC) was “loss of MurC inhibition”.
CCCCc1nc2ccn(Cc3ccccc3C(=O)OCC)c(=O)c2n1Cc1ccc(-c2ccccc2C#N)cc1 [Compound 18] showed a remaining activity at 100 µM (MurC) of 58%.
Work on CCCCc1nc2ccn(Cc3ccccc3-c3ccccc3)c(=O)c2n1Cc1ccc(-c2ccccc2-c2nnn[nH]2)cc1 [Compound 19] yielded a remaining activity at 100 µM (MurC) of 15% and an IC50 (MurC) of 75 ± 9 µM.
With CNC(=O)c1cc(Oc2ccc(NC(=O)Nc3cc(C(F)(F)F)ccc3-n3cncn3)cc2)ccn1 [Compound 20] the remaining activity at 10 µM (hMAO-B; Table 3) was 99% and the “hMAO-A RA [%]” value (hMAO-A; Table 3) was 60%.
CNC(=O)c1cc(Oc2ccc(NC(=O)Nc3cc(C(F)(F)F)ccc3-n3cncn3)cc2)ccn1 [Compound 21] was tested, and the “hMAO-B RA [%]” value (hMAO-B; Table 3) was 88% and the “hMAO-A RA [%]” value (hMAO-A; Table 3) was 92%.
Nc1ncnc2c1ncn2-c1ccc(NC(=O)Nc2cc(C(F)(F)F)ccc2-n2cncn2)cc1 [Compound 22] showed an IC50 (hMAO-B; Table 3) of 0.71 ± 0.1 µM, a remaining activity at 10 µM (hMAO-B; Table 3) of 6% and a remaining activity at 10 µM (hMAO-A; Table 3) of 111%.
Nc1ccc(NC(=O)Nc2cc(C(F)(F)F)ccc2-n2cncn2)cc1 [Compound 23] was tested, and the IC50 (hMAO-B; Table 3) was 3 ± 0.8 µM, the remaining activity at 10 µM (hMAO-B; Table 3) was 24% and the remaining activity at 10 µM (hMAO-A; Table 3) was 100%.
CNC(=O)c1cc(Oc2ccc(NC(=O)Nc3cc(C(F)(F)F)ccc3F)cc2)ccn1 [Compound 24] was tested, and the remaining activity at 10 µM (hMAO-B; Table 3) was 100% and the remaining activity at 10 µM (hMAO-A; Table 3) was 100%.
For O=C(Nc1cc(C(F)(F)F)ccc1-n1cncn1)Nc1ccc(OCCN2CCOCC2)c2ccccc12 [Compound 25], the remaining activity at 10 µM (hMAO-B; Table 3) was 86% and the remaining activity at 10 µM (hMAO-A; Table 3) was 79%.
With CNC(=O)c1cc(Oc2ccc(NC(=O)Nc3cc(C(F)(F)F)ccc3-n3cncn3)cc2)cc[n+]1[O-] [Compound 26] the remaining activity at 10 µM (hMAO-B; Table 3) was 98% and the remaining activity at 10 µM (hMAO-A; Table 3) was 89%.
CN(C)CCOc1ccc(NC(=O)Nc2cc(C(F)(F)F)ccc2-n2cncn2)cc1 [Compound 27] showed an IC50 (hMAO-B; Table 3) of 0.465 ± 0.042 µM, a remaining activity at 10 µM (hMAO-B; Table 3) of 6% and a remaining activity at 10 µM (hMAO-A; Table 3) of 117%.
O=C(Nc1ccc(OCCN2CCCCC2)cc1)Nc1cc(C(F)(F)F)ccc1-n1cncn1 [Compound 28] was tested, and the IC50 (hMAO-B; Table 3) was 2.6 ± 0.1 µM, the remaining activity at 10 µM (hMAO-B; Table 3) was 15% and the remaining activity at 10 µM (hMAO-A; Table 3) was 94%.
CNC(=O)c1cc(Oc2ccc(NC(=O)Nc3ccc(Cl)c(C(F)(F)F)c3)cc2)ccn1 [Compound 29] showed a remaining activity at 10 µM (hMAO-B; Table 3) of 89% and a remaining activity at 10 µM (hMAO-A; Table 3) of 86%.
With FC(F)(F)c1ccc2nccc(OCC3CCCN3c3ccnc4ncnn34)c2c1 (stereo not drawn) [Compound S1] the “hMAO-B RA [%]” value (hMAO-B; Table S3) was 75% and the “hMAO-A RA [%]” value (hMAO-A; Table S3) was 70%.
With c1cc(OCC2CCCN2c2ccnc3ncnn23)c2ccncc2c1 (stereo not drawn) [Compound S2] the “hMAO-B RA [%]” value (hMAO-B; Table S3) was 88% and the “hMAO-A RA [%]” value (hMAO-A; Table S3) was 87%.
In the case of N#Cc1cccc(C(=O)OCC2CCCN2c2ccnc3ncnn23)c1 (stereo not drawn) [Compound S3], the “hMAO-B RA [%]” value (hMAO-B; Table S3) is reported as 91% and the “hMAO-A RA [%]” value (hMAO-A; Table S3) is reported as 96%.
In the case of c1cc(OCC2CCCN2c2ccnc3ncnn23)c2cccnc2c1 (stereo not drawn) [Compound S4], the “hMAO-B RA [%]” value (hMAO-B; Table S3) is reported as 99% and the “hMAO-A RA [%]” value (hMAO-A; Table S3) is reported as 80%.
With CC(=O)N1CCc2cccc(OCC3CCCN3c3ccnc4ncnn34)c2C1 (stereo not drawn) [Compound S5] the “hMAO-B RA [%]” value (hMAO-B; Table S3) was 98% and the “hMAO-A RA [%]” value (hMAO-A; Table S3) was 94%.
CCOc1cccc(C(=O)OCC2CCCN2c2ccnc3ncnn23)c1 (stereo not drawn) [Compound S6] was tested, and the “hMAO-B RA [%]” value (hMAO-B; Table S3) was 88% and the “hMAO-A RA [%]” value (hMAO-A; Table S3) was 96%.
O=C(OCC1CCCN1c1ccnc2ncnn12)c1cccc(CCl)c1 (stereo not drawn) [Compound S7] was tested, and the “hMAO-B RA [%]” value (hMAO-B; Table S3) was 93% and the “hMAO-A RA [%]” value (hMAO-A; Table S3) was 70%.
O=C(NCCc1ccc(Cl)cc1)c1cc(OCC2CCCN2c2ccnc3ncnn23)c2ccccc2n1 (stereo not drawn) [Compound S8] was tested, and the “hMAO-B RA [%]” value (hMAO-B; Table S3) was 104% and the “hMAO-A RA [%]” value (hMAO-A; Table S3) was 86%.
With O=C(OCC1CCCN1c1ccnc2ncnn12)c1ccccc1I (stereo not drawn) [Compound S9] the “hMAO-B RA [%]” value (hMAO-B; Table S3) was 93% and the “hMAO-A RA [%]” value (hMAO-A; Table S3) was 90%.
In the case of O=C(OCC1CCCN1c1ccnc2ncnn12)c1cccc(OC(F)(F)F)c1 (stereo not drawn) [Compound S10], the “hMAO-B RA [%]” value (hMAO-B; Table S3) is reported as 81% and the “hMAO-A RA [%]” value (hMAO-A; Table S3) is reported as 92%.
COc1ccc2c3c([nH]c2c1)C(C)=NCC3 [Harmaline, reference compound] gave a remaining activity at 10 µM (hMAO-A; Table 3) of 0%.

From article PMC9320114 (Molecules, 2022)
